The source of these data is patent US10251874B2, “Crystalline forms of a JAK inhibitor compound” (THERAVANCE BIOPHARMA R&D IP, LLC, priority 2017, dated 2019).

For this data set the following is noted: for sorption/desorption profile (hygroscopicity): DMS, two cycles of sorption and desorption, 25° C.

Structures are written as SMILES. Read-outs that look alike come from different tables or passages of the source.

Procedure: Dynamic moisture sorption (DMS) measurement was performed using a VTI atmospheric microbalance, SGA-100 system (VTI Corp., Hialeah, FL 33016). A weighed sample was used and the humidity was lowest possible value (close to 0% RH) at the start of the analysis. The DMS analysis consisted of an initial drying step (˜0%RH) for 120 minutes, followed by two cycles of sorption and desorption with a scan rate of 5% RH/step over the humidity range of 5% RH to 90% RH. The DMS run was performed isothermally at 25° C.

For the compound `CCc1cc(O)c(F)cc1-c1ccc2c(-c3nc4c([nH]3)CCN(C3CCN(C)CC3)C4)n[nH]c2c1.O.O=C(O)CCC(=O)O` [succinate hydrate, Crystalline Succinate Hydrate of 5-ethyl-2-fluoro-4-(3-(5-(1-methylpiperidin-4-yl)-4,5,6,7-tetrahydro-1H-imidazo[4,5-c]pyridin-2-yl)-1H-indazol-6-yl)phenol], the “sorption/desorption profile (hygroscopicity)” value was “slight propensity for hygroscopicity”. The total moisture uptake entry (relative humidity between about 5% and about 90% at room temperature) was “about 2%”.
On to `CCc1cc(O)c(F)cc1-c1ccc2c(-c3nc4c([nH]3)CCN(C3CCN(C)CC3)C4)n[nH]c2c1.O.O=C(O)C(=O)O` [oxalate hydrate, Crystalline Oxalate Hydrate of 5-ethyl-2-fluoro-4-(3-(5-(1-methylpiperidin-4-yl)-4,5,6,7-tetrahydro-1H-imidazo[4,5-c]pyridin-2-yl)-1H-indazol-6-yl)phenol], for which the “sorption/desorption profile (hygroscopicity)” value was “slight propensity for hygroscopicity”. Moreover, under “relative humidity between about 30% and about 90% at room temperature”, the total moisture uptake entry is on record as “about 1%”.
